These results are taken from ChEMBL document CHEMBL1135046, “Synthesis of an alpha-aminophosphonate nucleoside as an inhibitor of S-adenosyl-L-homocysteine hydrolase” (Bioorg Med Chem Lett, 2002).

In one data set the target is T1, Adenosylhomocysteinase (Rattus norvegicus, UniProt P10760).
T1 sequence (P10760 whole entry): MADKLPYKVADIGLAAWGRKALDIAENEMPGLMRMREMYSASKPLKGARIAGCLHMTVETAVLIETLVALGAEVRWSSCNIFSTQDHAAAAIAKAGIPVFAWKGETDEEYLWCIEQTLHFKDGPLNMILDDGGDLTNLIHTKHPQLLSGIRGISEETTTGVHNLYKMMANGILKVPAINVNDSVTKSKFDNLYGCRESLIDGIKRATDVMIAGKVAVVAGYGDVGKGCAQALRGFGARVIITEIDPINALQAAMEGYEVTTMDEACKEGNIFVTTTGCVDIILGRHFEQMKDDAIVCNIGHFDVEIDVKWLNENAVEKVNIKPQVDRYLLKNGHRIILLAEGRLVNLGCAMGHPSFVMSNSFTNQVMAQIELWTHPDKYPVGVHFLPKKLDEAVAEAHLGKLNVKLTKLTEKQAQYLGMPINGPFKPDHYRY
Put plainly: (§1) Inhibition constant for the compound was determined against the recombinant rat liver AdoHyc hydrolase (MV1304/pUCSAH).

Data set [1] concerns the target T2, Adenosylhomocysteinase (Rattus norvegicus) (UniProt P10760).
T2 sequence (whole entry): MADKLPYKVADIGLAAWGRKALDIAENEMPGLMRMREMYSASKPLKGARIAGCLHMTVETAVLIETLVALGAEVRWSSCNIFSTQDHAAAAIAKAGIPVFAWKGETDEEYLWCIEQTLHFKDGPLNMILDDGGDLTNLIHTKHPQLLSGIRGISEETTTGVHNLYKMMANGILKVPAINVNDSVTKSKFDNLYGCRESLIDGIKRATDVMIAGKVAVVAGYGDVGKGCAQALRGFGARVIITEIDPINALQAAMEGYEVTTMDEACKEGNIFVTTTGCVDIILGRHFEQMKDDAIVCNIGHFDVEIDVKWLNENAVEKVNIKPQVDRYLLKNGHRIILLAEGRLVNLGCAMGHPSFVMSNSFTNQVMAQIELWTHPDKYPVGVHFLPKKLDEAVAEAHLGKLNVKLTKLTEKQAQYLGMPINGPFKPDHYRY
The data set is described as §1.

Substrate in data set [2]: Nc1ncnc2c1ncn2[C@@H]1O[C@H](CSCC[C@H](N)C(=O)O)[C@@H](O)[C@H]1O
Description: Km for the compound was determined against the recombinant rat liver AdoHyc hydrolase (MV1304/pUCSAH)

The term Ki denotes the dissociation constant of the complex between target and ligand, obtained from inhibition or displacement. Turning to `Nc1ncnc2c1ncn2C1OC(CSCC[C@H](N)C(=O)O)[C@@H](O)[C@H]1O` (stereo in doubt; form 1) [listing 1 of 2 here], the Ki at Adenosylhomocysteinase turned out to be 1090 µM.

For `Nc1ncnc2c1ncn2C1OC(CSCC[C@H](N)C(=O)O)[C@@H](O)[C@H]1O` (stereo in doubt; form 2) [listing 1 of 2 here], the K inact in data set [1] was 0.0049 min⁻¹. For the molecule `CC(C)CSC[C@H]1OC(n2cnc3c(N)ncnc32)[C@H](O)[C@@H]1O` (some centres not stated), the Ki on Adenosylhomocysteinase was 105 µM. In addition, in data set [1], the K inact was found to be 0.0488 min⁻¹.

For the molecule `Nc1ncnc2c1ncn2C1OC(CSCC[C@H](N)C(=O)O)[C@@H](O)[C@H]1O` (stereo in doubt; form 2) [listing 2 of 2 here], on Adenosylhomocysteinase, the Ki was determined as 345 µM.

As to `Nc1ncnc2c1ncn2C1OC(CSCC[C@H](N)C(=O)O)[C@@H](O)[C@H]1O` (stereo in doubt; form 1) [listing 2 of 2 here], in data set [1], the K inact was 0.0145 min⁻¹.

B1: Adenosylhomocysteinase (Rattus norvegicus), P10760 (protein)
chain: MADKLPYKVADIGLAAWGRKALDIAENEMPGLMRMREMYSASKPLKGARIAGCLHMTVETAVLIETLVALGAEVRWSSCNIFSTQDHAAAAIAKAGIPVFAWKGETDEEYLWCIEQTLHFKDGPLNMILDDGGDLTNLIHTKHPQLLSGIRGISEETTTGVHNLYKMMANGILKVPAINVNDSVTKSKFDNLYGCRESLIDGIKRATDVMIAGKVAVVAGYGDVGKGCAQALRGFGARVIITEIDPINALQAAMEGYEVTTMDEACKEGNIFVTTTGCVDIILGRHFEQMKDDAIVCNIGHFDVEIDVKWLNENAVEKVNIKPQVDRYLLKNGHRIILLAEGRLVNLGCAMGHPSFVMSNSFTNQVMAQIELWTHPDKYPVGVHFLPKKLDEAVAEAHLGKLNVKLTKLTEKQAQYLGMPINGPFKPDHYRY
For orientation: Km means the substrate concentration at which the rate is half of its maximum. On to B1, for which the Km in data set [2] is 9.7 µM.
